The values below come from PubChem BioAssay (NCI).

What all share (assay): inhibition of tumour cell growth, NCI panel, 48 h
For assay [1], the system named is MCF7 breast.
The subject of assay [2] is PC-3 prostate.
For assay [3], the system named is UO-31 renal.
In assay [4] the test system is RPMI-8226 leukemia.
Assay [5] has as its system SN12C renal.
Assay [6] relates to HCT-116 colon.
For assay [7], the system named is EKVX NSCLC.
In assay [8] the test system is NCI-H460 lung.
Assay [9] deals with OVCAR-5 ovarian.
Assay [10] relates to MDA-MB-435.

Molecules are shown by their SMILES. Values joined by “and” are separate entries in the source; they are usually repeats but may differ in a detail not shown here. Equal values may be shown once.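 96-well plates; 48 h exposure; 5 concentrations. Endpoints by linear interpolation between flanking doses. Not reached: highest tested concentration assigned. Here, GI50 denotes the concentration required for 50% inhibition of growth. TGI: concentration producing complete growth inhibition.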

As for `CCOC(=O)c1cn(C)c(=S)n2c1nc1ccccc12`, the TGI in assay [1] was > 100 µM; in [2], > 100 µM; in assay [3], > 100 µM; in assay [4] it was 95.6 µM; in [5], > 100 µM; in [6] it was > 100 µM. Further, the TGI in [7], in assay [8], in assay [9] and in [10] was > 100 µM in each case.

For the compound `O=C(NNCc1ccc(Cl)cc1)Nc1cccc2ccccc12`, the TGI was > 100 µM in assay [1]; > 100 µM in assay [2]; > 100 µM in assay [3]; 84.4 µM in assay [4]; > 100 µM in assay [5]; > 100 µM in assay [6]. The TGI in assay [7], in [8], in assay [9] and in assay [10] was > 100 µM in each case.

On to `O=[N+]([O-])c1ccc(C(Nc2ccccc2)c2ccc3cccnc3c2O)cc1` (stereo unspecified), for which the TGI was > 75.6 µM in assay [1]; > 87.2 µM in assay [2]; 32.3 µM in assay [3]; 38.5 µM in assay [4]; > 56.2 µM in [5]; > 75.3 µM in assay [6]. Further, the TGI in [7] was > 54.6 µM; in [8], > 60.6 µM; in [9], > 100 µM; in assay [10], > 78 µM.

For `NC(=O)Cc1nc2c(=O)[nH]cnc2n1C1OC(CO)C(O)C1O` (stereo unspecified), the TGI in assay [1], in assay [2], in [3], in assay [4], in assay [5] and in assay [6] was > 100 µM throughout. Besides, the TGI in assay [7], in assay [8], in assay [9] and in [10] was > 100 µM throughout.

Take `Cc1ccc(-c2n[nH]c(=O)n2/N=C\c2ccccc2)cc1`: the TGI in [1] is > 100 µM; in assay [2], > 100 µM; in assay [3] it was > 100 µM; in assay [4], > 100 µM; in assay [5], > 90.4 µM; in assay [6], > 100 µM. The TGI in [7], in [8], in assay [9] and in [10] was > 100 µM throughout.

For `CCN(CC)c1ccc2cc(-c3nc4ccccc4c(=O)[nH]3)c(=N)oc2c1`, the TGI in assay [1], in assay [2], in [3], in assay [4], in assay [5] and in assay [6] was > 100 µM in each case. Moreover, the TGI in assay [7], in [8], in assay [9] and in [10] was > 100 µM throughout.

In the case of `O=c1cc(NCc2ccncc2)[nH]c(=O)[nH]1`, the TGI in assay [1], in [2], in [3], in assay [4], in [5] and in assay [6] was > 100 µM throughout. For the same compound, the TGI in assay [7], in assay [8], in [9] and in assay [10] was > 100 µM each time.

On to `COC1(OC)c2no[n+]([O-])c2C(OC)(OC)c2c1no[n+]2[O-]`, for which the TGI is 42.7 µM in assay [1]; 66.6 µM in [2]; > 100 µM in assay [3]; 87.8 µM in [4]; 54 µM in [5]; 24.6 µM in assay [6]. Moreover, the TGI is 41.6 µM in [7], > 100 µM in assay [8], 43.6 µM in assay [9] and 36.2 µM in assay [10].

Take `NCCOCC(N)C(=O)O` (stereo unspecified): the TGI in assay [1], in assay [2], in [3], in [4], in assay [5] and in [6] was > 100 µM in each case. Moreover, the TGI in assay [7], in assay [8], in [9] and in assay [10] was > 100 µM each time. Besides, in assay [4], the GI50 is 39.1 µM and > 100 µM.
